Entries after “also recorded” stand apart in the source; their conditions may differ. Marks after values point to notes of the source that are not given here.
Tests used:
B-16 melanoma cells = assay: Repeated injections of DPA into melanoma tumor (Example IV); type: in vivo, mice; details: for Volume of melanoma tumor: 5 mg DPA in 0.2 ml saline daily, intratumoral, average
Method: Female mice, standard inbred C 57/Black, having between about 20 to about 25 g body weight were injected s.c. in the right flank region with 0.1 ml of […] B-16 melanoma cells. These cells are harvested in their end of the log phase growth. These cells come from a tissue culture, using RPMI 1640 medium with 10% FBS enriched with 1-glutamine, penicillin and streptomycin. Cells are harvested by trypsinization, counted, suspended in sterile PBS, and injected in 0.1 ml s.c. in flank region. There were 4 mice per group.
Injection of these melanoma cells resulted within 10 days post injection to a tumor weight of about 1.5 g. Tumor volumes were monitored 3× per week by caliper (MITUYO digital, Smalls Parts Inc., Phoenix, Ariz.) in two perpendicular directions and once per week for body weight. Tumor volume in cubic millimeters is calculated by the formula: (length×(width^2))/2.
Monitoring was continued up to 4 weeks. When the control animals began to die from the tumor burden, the experiment was terminated. Individual animals were terminated once the tumor volume exceeded 20% of mice weight, or when the body weight loss exceeded 20% of the starting body weight.
Table 2 recites the volume, in cubic millimeters, of the melanoma tumor injected daily with 5 mg DPA in 0.2 ml of saline. The treatment was administered once the tumor reached a detectable and measurable size. Average volumes are recited in Table 2. […] There was no effect on body weight or animals behavior.

[1] = known properties; cited from earlier work
[2] = Rate of release of lathyrogen from polymeric carrier HYPA(N-30) into saline; type: physicochemical; details: for Percent Released: from HYPA(N-30) carrier into saline, 37° C.
Method: Applicant compared the rate of release from a polymeric carrier of unmodified […] hydrophilic lathyrogen, and a lipophilic D-penicillamine adduct formed by reacting DPA with hexanaldehyde using a published synthetic procedure. Both lathyrogens were dispersed in a polyacrylonitrile (“PAN”) polymer sold in commerce by SKY Polymers, Princeton, N.J. under the tradename HYPA(N-30). The HYPA(N-30) was dissolved in 100% DMSO. Water drowning this DMSO/HYPA(N-30)/lipophilic DPA solution, using a syringe with a 16 gauge needle attached, into saline (0.9% NaCl in water W/v) forms a flexible, solid string. The […] was kept at 37° C., and the incubation jar was minimally shaken. At the times recited in Table 1, an aliquot of the incubation medium was collected and the amount of released D-penicillamine was determined using a reaction between ninhydrin and the free amino groups on the released DPA. […] The ninhydrin reaction requires heating the sample at 100° C., thus freeing the amino group. Table 1 recites the results.

[3] = cited from earlier work
[4] = free BAPN; quickly excreted and metabolized; cited from earlier work
[5] = tested on: malignant mammary adenocarcinoma, code 13762 NM; assay: Single injection of lipophilic lathyrogen/polymeric carrier into mammary carcinoma (Example V); type: in vivo, rats; details: single intratumoral injection on day 10, in polymeric carrier with unmodified DPA or BAPN
Method: In this Example V, Applicant prepared a formulation comprising methylester-DPA.HCl, i.e. Compound II wherein R1 is methyl and wherein R2 is hydrogen, and wherein X is chloride, or Hexyl(amino)-propionitrile, i.e. Compound IV, wherein R4 is hexyl, dispersed in a liquid polymeric carrier.
Applicant dispersed 1 gram of either methylester-DPA.HCl, or hexyl(amino) propionitrile, in combination with about 100 mg of the unmodified DPA or BAPN, respectively, in about 1 ml of the liquid polymer. After thorough mixing, 1 ml volume syringes were filled with Applicant's formulation. All preparations were performed at about 4° C., over crushed ice, and the syringes and needles used were refrigerated prior to loading. The loaded syringes were kept in a refrigerated vessel until used.
The rat model of solid tumor was described by Miller et al. (Proc Nat'l Acad Sci 90,3304,1993). Fischer 344 (F344) inbred female rats were used. The initial body weight was 100 grams, plus or minus about 7 grams. The right flank area was clipped, and the rats were tattooed for identification in the ear. […]
There were 6 rats per group. […] Once the implanted tumor was detectable, the size of that tumor was measured by caliper in two perpendicular directions.
The growth of each tumor was determined every second day. […]

breast adenocarcinome = assay: Single injection into mammary carcinoma, breast adenocarcinome model (Example VI); type: in vivo, rats; details: single intratumoral injection; FIG. 3
Method: In this Example VI, Applicant studied the effect of various treatments on the tumor growth, survival rate, morphology, and metastases in Fisher rats of breast adenocarcinome model.
The method of Example V was used to prepare and inject tumor chunks into the test animals. In Example VI, Applicant used 5 groups of animals with 8 rats per group.
The preparation of the treatment modalities was as follows: • Group 1. Control • Group 2. Polymer Carrier only; used 1.5 ml polymer+1 ml water (polymer used: 38% PLGA-c-PEG in saline) • Group 3. 2 grams Polymeric Carrier+1.038 grams Hexyl ester DPA.HCl+200 mg DPA • Group 4. 800 mg Hexyl ester DPA.HCl+200 mg DPA+2 ml water • Group 5. 1.5 grams Polymeric Carrier+1.5 grams Hexyl (amino)propionitrile+200 mg BAPN Once mixed, all materials were kept on ice until injection time. The various formulations were injected into the tumor using a 23 gauge needle. The retains of Groups 2, 3, and 5, remained pourable after 2–3 hours at 82° F.

D-Pencillamine [DPA]
effect on body weight or animals behavior (B-16 melanoma cells; daily intratumoral 5 mg DPA): no effect | Volume of melanoma tumor (B-16 melanoma cells; day 0 after detectable tumor was injected): 89 cubic millimeters | Volume of melanoma tumor (B-16 melanoma cells; day 2): 174* cubic millimeters | Volume of melanoma tumor (B-16 melanoma cells; day 5): 806* cubic millimeters | Volume of melanoma tumor (B-16 melanoma cells; day 7): 816* cubic millimeters | Volume of melanoma tumor (B-16 melanoma cells; day 9): 486* cubic millimeters | Toxicity In local administration [1]: none | Toxicity in systemic administration [1]: yes | time over which released from the polymeric carrier ([2]; FIG. 1): a few hours | Percent Released ([2]; Time 0.1 hours): 29% | Percent Released ([2]; Time 2 hours): 89% | Percent Released ([2]; Time 20 hours): 100% | solubility in aqueous media, such as tissue fluid [3]: very soluble

N#CCCN [BAPN, beta-aminopropionitrile]
duration of activity [4]: no more than 24 hours

CCCCCCNCCC#N [Hexylamino-propionitrile, Hexyl(amino)-propionitrile]
growth of the tumor [5]: markedly inhibited; also recorded: inhibitory effect

COC(=O)[C@H](N)C(C)(C)S.Cl [methylester-DPA.HCl, DPA-Methylester Hydrochloride]
growth of the tumor ([5]; Hydrochloride): even more pronounced inhibition of tumor growth; also recorded: inhibitory effect | tumor growth (breast adenocarcinome): effective
